PMC4214152 (Chemical science (Royal Society of Chemistry : 2010), 2011)

How the values were obtained:
physchem = assay type: physicochemical
αIIbβ3 integrin = αIIbβ3 integrin (Homo sapiens, UniProt P05106+P08514); assay: Hyperpolarized 129Xe NMR binding assay
αvβ3 integrin receptor = αvβ3 integrin receptor (Homo sapiens, UniProt P05106+P06756); assay type: binding
[1] = biological target: purified human αIIbβ3 integrin receptor (Homo sapiens, UniProt P05106+P08514); assay type: binding
[2] = test system: AsPC-1 pancreatic carcinoma; assay: Cell viability by MTT assay; assay type: cell-based; conditions: AsPC-1, 100 μM, 24 h
[3] = test system: NCI-H1975 lung carcinoma cells; assay: Cell viability by MTT assay; assay type: cell-based; conditions: NCI-H1975, 100 μM, 24 h
HFL-1 lung fibroblasts = conditions: HFL-1, 100 μM, 24 h incubation
[4] = 50 μM with 16 μM αIIbβ3 integrin, Tris buffer, 30% glycerol, 0.1% Triton X-100

SMILES | solubility (physchem) [µM] | 129Xe NMR chemical shift of "bound" biosensor (αIIbβ3 integrin; [4]) [ppm] | 129Xe NMR chemical shift of "free" biosensor (αIIbβ3 integrin; [4]) [ppm] | 129Xe NMR chemical shift of biosensor alone (αIIbβ3 integrin; 100 μM, Tris buffer (1 mM, pH 7.2)) [ppm] | lower affinity compared to c[RGDyK] peptide alone (αvβ3 integrin receptor) | weaker binding compared to c[RGDyK] peptide [1] | maximum toxicity [2] [%] | maximum toxicity [3] [%] | maximum toxicity (HFL-1 lung fibroblasts) [%]
COc1cc2c3cc1OCCOc1cc4c(cc1OCc1cn(CCCC[C@@H]5NC(=O)[C@@H](Cc6ccc(O)cc6)NC(=O)[C@H](CC(=O)O)NC(=O)CNC(=O)[C@H](CCCNC(=N)N)NC5=O)nn1)Cc1cc5c(OCc6cn(CCC(=O)O)nn6)cc1Cc1cc(c(OCc6cn(CCC(=O)O)nn6)cc1C4)OCCOc1cc(c(cc1OC)Cc1cc(c(OC)cc1C3)OCCO5)C2 [Biosensor 5] | ≤ 250 | 71.2 | 67.1 | 65.8 | – | – | – | – | –
C#CCOc1cc2c3cc1OCCOc1cc4c(cc1OC)Cc1cc5c(OC)cc1Cc1cc(c(OC)cc1C4)OCCOc1cc(c(cc1OCC#C)Cc1cc(c(OCc4cn(CCCC[C@@H]6NC(=O)[C@@H](Cc7ccc(O)cc7)NC(=O)[C@H](CC(=O)O)NC(=O)CNC(=O)[C@H](CCCNC(=N)N)NC6=O)nn4)cc1C3)OCCO5)C2 [Biosensor 3] | – | – | – | – | approximately 4 fold | approximately 10 fold | 61 | 57 | 40
